Values quoted from earlier work, collected in patent publication US10946011B2 (Martin Pharmaceuticals Inc., priority 2018, dated 2021).

**Q.** Which PKa does the source give for `OCC(CO)(CO)NCCCNC(CO)(CO)CO` [BIS-Tris Propane] here?
**A.** The PKa was 6.80.
